Measured values: ChEMBL document CHEMBL1151412, “Constituents of Couepia paraensis” (1983)
≈ marks a conversion by molar mass, not a printed value.

Tested on: KB
Assay: Cytotoxicity against human KB cells
Format: functional
Details: read-out: ED50 (the source's name)

COc1c(OC)c(O)c2c(=O)cc(C)oc2c1C
EC50: 60 µg/mL (≈ 240 µM)
